{
  "source": "patent US20110152218A1",
  "about": "“CRYSTALLINE PHOSPHOLIPID, METHOD FOR ITS PRODUCTION AND USE IN TREATING DAMAGED TISSUE” (priority 2008, published 2011)",
  "format_in_all_cases": "cell-based, rabbit",
  "key": {"[1]": {"tested_on": "cells derived from the surface of the tendon (epitenon)", "experiment": "WST-1 proliferation assay, tendon surface cells", "procedure": "(§1) Therefore all three-cell types were established and cultured as separate cell strains.\n(§2) Tendon derived fibroblasts were cultured in Dulbecco's Modified Eagles Medium (DMEM) with 10% fetal calf serum, 2 mM glutamine, 100 U/ml penicillin and […] streptomycin (NGM).\n(§3) A 5 mg/ml solution of the phospholipid prepared according to Example 1 and referred to in this example as “Pumactant” was dissolved in serum free media in a sterile 100 ml bottle incubated at 37° C. and then diluted further to a concentration of 1 mg/ml.\n(§4) Fibroblasts derived from tendons were seeded at 5×10^3/well into a 96 microtitre plate (Greiner) and allowed to attach overnight in minimum media (DMEM supplemented with 0.4% FCS) to maintain cells in a healthy but quiescent state. After 24 hrs, the media was aspirated and replaced by test media (minimum media with concentrations of pumactant; or different concentrations of fetal calf serum; or different concentrations of TGF-β1) and cultured for 24, 48 and 72 hours. Cell number was assessed using WST-1 assay (Roche Products Ltd). Test media was removed and the wells washed twice with minimal media, minimal media was replaced and 10 μl WST-1 solution was added to each well. The cells were incubated for 1 hour in standard tissue culture conditions. The absorbance, which related to the number of viable cells converting the reagent to coloured formazan crystals, was read at 450 nm on a Bio-Rad Plate reader. Experiments were performed in triplicate for each cell strain."}, "[2]": {"tested_on": "cells derived from the tendon sheath", "experiment": "WST-1 proliferation assay, tendon sheath cells", "procedure": "as §1, §2, §3, §4"}, "[3]": {"tested_on": "collagen type I, collagen type III, fibronectin, PAI-1, tPA gene transcription in surface derived cells", "experiment": "QRT-PCR gene transcription, surface derived cells", "conditions": "time course", "procedure": "(§5) Cells were placed in serum free media for 24 hrs prior to stimulation with pumactant or TGF-β1; viability was assessed using Trypan blue (Sigma; data not shown). Quiescent cells were treated with pumactant (1 mg/ml) for 0-24 hrs or TGF-β1 for 0-24 h ours (positive control). Total RNA was isolated from treated and untreated samples using Trizol (Gibco). Quant-iT™ Ribogreen® RNA kit (Invitrogen) was used to determine RNA concentration. First strand cDNA was synthesized using the StrataScript® first-strand synthesis system (Stratagene™) with oligonucleotide dTs (0.5 μg/μl) according to manufacturer's instructions.\n(§6) Two μl of the first strand cDNA product was used for amplification in triplicate in a 25 μl reaction solution containing 12.5 μl of SYBR Green PCR Master Mix (Stratagene™, La Jolla, Calif.) and 10 pM of each primer as per manufacturer's instructions. Primer sequences are identified in Table 1. The primer sequences are also listed in the sequence listing which is attached to the specification of the present application and made a part thereof.\n(§7) The PCR reaction was performed on a MX3000P (Stratagene, La Jolla, Calif.). The PCR program consisted of an initial denaturation where the reaction was incubated for 10 min at 95° C., the second step the DNA was amplified for 40 cycles of 30 sec at 95° C. annealing of primers for 1 min at 60° C. and an extension at 72° C. for 30 sec. Dissociation curve was performed to ensure no primer-dimers were present at the end of each PCR run.\n(§8) The relative expression software tool (REST©) was used for the calculation of relative expression levels in real-time PCR (Pfaffl et al, 2002). This mathematical model is based on the PCR efficiencies and the mean crossing point deviation between the treated and untreated cells. The target gene expression was normalized with two housekeeping genes: GAPDH and ACTB. Statistical analysis of group differences was performed by Pair Wise Fixed Reallocation Randomization Test©, implemented in the REST-XL software (Pfaffl et al, 2002) and the coefficient of variance was given. Sigma Plot was used to illustrate the logarithmic graphs."}, "[4]": {"tested_on": "collagen type I, collagen type III, fibronectin, PAI-1, tPA gene transcription in core derived cells", "experiment": "QRT-PCR gene transcription, core derived cells", "conditions": "48-hour time course, pumactant 1 mg/ml or TGF-β1 2 ng/ml, n=3", "procedure": "Cells were placed in serum free media for 24 hrs prior to stimulation with pumactant or TGF-β1; viability was assessed using Trypan blue (Sigma; data not shown). […] Total RNA was isolated from treated and untreated samples using Trizol (Gibco). Quant-iT™ Ribogreen® RNA kit (Invitrogen) was used to determine RNA concentration. First strand cDNA was synthesized using the StrataScript® first-strand synthesis system (Stratagene™) with oligonucleotide dTs (0.5 μg/μl) according to manufacturer's instructions.\nas §6, §7, §8"}, "[5]": {"tested_on": "tendon core cells (endotenon)", "experiment": "WST-1 proliferation assay, tendon core cells", "procedure": "as §1, §2, §3, §4"}, "[6]": {"tested_on": "collagen type I, collagen type III, fibronectin, PAI-1, tPA gene transcription in sheath derived cells", "experiment": "QRT-PCR gene transcription, sheath derived cells", "conditions": "time course, pumactant 1 mg/ml or TGF-β1, n=3", "procedure": "as §5, §6, §7, §8"}, "[7]": {"conditions": "pumactant 1 mg/ml or TGF-β1, n=3"}},
  "note": "Entries after “also recorded” stand apart in the source; their conditions may differ.",
  "data": [
    {"substance": "TGF-β1: growth factor used as positive control", "values": [
      {"measurement": "proliferation of surface cells", "setting": "[1]; 24 hours, over the tested concentrations", "value": "no statistical significant difference at any concentration"},
      {"measurement": "proliferation of surface cells", "setting": "[1]; 48 hours, various concentrations of TGF-β1", "value": "No concentrations of TGF-β1 showed any statistical increase; also recorded: no statistical significance"},
      {"measurement": "proliferation of surface cells compared to minimal media", "setting": "[1]; 72 hours, 2 ng/ml of TGF-β1, FIG. 24C", "value": "statistically significant increase in proliferation; also recorded: increase was identified at 2 ng/ml"},
      {"measurement": "cell number of sheath cells compared to control media", "setting": "[2]; 24 hours, the other / various concentrations", "value": "no statistical significance; also recorded: no statistical changes in cell number"},
      {"measurement": "proliferation of sheath cells", "setting": "[2]; 48 hours, any concentration", "value": "no statistical significance for any concentration"},
      {"measurement": "proliferation of sheath cells", "setting": "[2]; 72 hours, 0.5 ng/ml of TGF-β1", "value": "statistical significant increase"},
      {"measurement": "PAI-1 gene transcription", "setting": "[3]; [7]", "value": "up regulation in response to TGF-β1, which was statistically significant at 24 hours for fibronectin (p=0.03) and 4 hours for PAI-1"},
      {"measurement": "collagen type III gene transcription", "setting": "[3]; [7]", "value": "statistically significant down regulation at 1 hrs (*p=0.036), 2 hrs (*p=0.001), 6 hrs (*p=0.038), 16 hrs and 48 hrs"},
      {"measurement": "fibronectin gene transcription", "setting": "[3]; [7]", "value": "up regulation in response to TGF-β1, which was statistically significant at 24 hours for fibronectin"},
      {"measurement": "collagen type I gene transcription", "setting": "[3]; pumactant 1 mg/ml or TGF-β1, vs untreated, normalized with GAPDH and ACTB, n=3", "value": "up regulation of Collagen type I gene transcription which was statistically significant at 24 and 48 hours; also recorded: statistically significant up regulation at 24 hours (*p=0.025) and 48 hours"},
      {"measurement": "PAI-1 gene transcription", "setting": "[4]", "value": "up regulation of gene transcription at 2 and 4 hours but this was only statistically significant at 2 hours; also recorded: statistically significant increase at 2 hrs"},
      {"measurement": "collagen type I gene transcription", "setting": "[4]", "value": "no statistical change"},
      {"measurement": "collagen type III gene transcription", "setting": "[4]", "value": "statistically significant down regulation in the early stages of the time course 2, 6 and 8 hours; also recorded: statistically significant down regulation at 2, 6 and 8 hours"},
      {"measurement": "fibronectin gene transcription", "setting": "[4]", "value": "at 6 h a statistically significant down regulation (p=0.024), which was later, reversed with a statistically significant up regulation at 24 and 48 hours; also recorded: significant down regulation of fibronectin gene transcription at 6 hours (*p=0.024) and a statistically significant up-regulation at 24 hrs (*p=0.03) and 48 hrs"},
      {"measurement": "tPA gene transcription", "setting": "[4]", "value": "statistically significant down regulation in gene transcription at 1, 2, 6, 8 and 24 hrs 0.01) and 16 hours"},
      {"measurement": "proliferation of core cells", "setting": "[5]; 24 hours, over the tested concentrations, FIG. 25", "value": "no statistical increase in proliferation"},
      {"measurement": "proliferation of core cells", "setting": "[5]; 48 hours, various concentrations", "value": "no statistical significance"},
      {"measurement": "proliferation of core cells", "setting": "[5]; 72 hours, any concentration, FIG. 27", "value": "no statistical significance"},
      {"measurement": "PAI-1 gene transcription", "setting": "[6]", "value": "no statistical changes over the whole time course"},
      {"measurement": "collagen type I gene transcription", "setting": "[6]", "value": "up regulate of Collagen type I gene transcription over the time course though this did not reach statistical significance"},
      {"measurement": "collagen type III gene transcription", "setting": "[6]", "value": "up regulation, which was statistically significant at 6 hours, 8 hours (p=0.03; FIG. 30), 16 and 24 hours; also recorded: statistically significant up regulation at 6 hrs (*p=0.03), 8 hrs (*p=0.037), 16 hrs (*p=0.012) and 24 hrs"},
      {"measurement": "fibronectin gene transcription", "setting": "[6]", "value": "no statistical changes over the whole time course"},
      {"measurement": "tPA gene transcription", "setting": "[6]", "value": "down regulation of gene transcription which was statistically significant at 2 hrs (p=0.013), 4 hours and 24 hours; also recorded: statistically significant down regulation at 2 hrs (*p=0.013), 4 hrs (*p=0.001) and 24 hrs"}
    ]}
  ]
}
